Laboratory results taken from patent US20240181068A1, “SELECTIVE NEUTRAL PH INHIBITOR OF CATHEPSIN B” (The Regents of the University of California, priority 2021, published 2024).

Assays:
Assay type in all cases: biochemical
[1] = biological target: T1, cathepsin B in SHSY5Y human neuroblastoma cell homogenate (Homo sapiens, UniProt P07858); assay: Cathepsin B activity in neuroblastoma cell homogenates in presence of inhibitors; settings: inhibitor 1 μM, Z-Arg-Arg-AMC substrate, pH 5.5
T1 construct: endogenous in cells; host or cells: SH-SY5Y human neuroblastoma cells
Protocol: Cathepsin B in human neuroblastoma cells treated with inhibitors. Neuroblastoma cells (human SHSY5Y) were grown in media consisting of 50% MEMalpha, 50% F12-K, 10% heat-inactivated FBS at 37° C. in an atmosphere of 95% air and 5% CO2. Firstly, cell homogenates were prepared by collection of cells in 0.32 M sucrose and freeze-thawing. Secondly, cells were incubated with Z-Arg-Lys-AOMK or CA-074Me for 6 hours at 37° C., and washed 3 times in phosphate-buffered saline and homogenates were prepared in 0.32 M sucrose with freeze-thawing. CA-074Me is a methyl ester form of the active CA-074 selective inhibitor of cathepsin B (70); CA-074Me penetrates the cell and is converted by intracellular esterases to CA-074.
Cathepsin B activity in the homogenates were monitored with Z-Arg-Arg-AMC substrate (60 μM) with buffer conditions of 40 mM citrate-phosphate, pH 5.5, 5 mM DTT, 1 mM EDTA, 100 mM NaCl, and 1.2% DMSO, followed by incubation at 37° C. for 30 minutes and reading of AMC fluorescence. CA-074-senstive activity was monitored to indicate cathepsin B activity, since CA-074 is a selective inhibitor of this enzyme (70). Protein content was measured in homogenates with the DC protein assay kit. Cathepsin B specific activity was calculated as nmol AMC/μg/min, and reported as the mean±SD (with analyses for statistical significance, p<0.05 by student's t-test).

[2] = biological target: T2, cathepsin B (Homo sapiens, UniProt P07858); assay: Irreversible mechanism of inhibitors (pre-incubation, dilution, activity); settings: pH 4.6
T2 construct: purchased R&D Systems 953-CY-010
Protocol: Irreversible mechanism of inhibitors. The irreversible or reversible mechanism of cathepsin B inhibition was assessed for Z-Arg-Lys-AOMK and Z-Glu-Lys-AOMK inhibitors. At pH 7.2, cathepsin B was incubated with 190 nM Z-Arg-Lys-AOMK and 4.99 μM Z-Glu-Lys-AOMK for 15 min in pH 7.2 assay buffer and the assay was performed as described above for pH 4.6. Proteolytic activity was monitored for 2 hr. At pH 4.6, cathepsin B (activated, 3.7 ng/μL) was incubated with 4.24 μM Z-Arg-Lys-AOMK and 3.48 μM Z-Glu-Lys-AOMK for 15 min in 40 mM citrate phosphate pH 4.6, 1 mM EDTA, 100 mM NaCl, and 5 mM DTT; a vehicle control contained 2.5% DMSO. Each reaction was then diluted 100-fold in assay buffer such that the final assay composition was 0.04 ng/μL cathepsin B, 40 μM Z-Phe-Arg-AMC, and an inhibitor concentration of 1/10th the IC50 value.

[3] = biological target: T3, cathepsin C (Homo sapiens, UniProt P53634); assay: Specificity of inhibitors: cathepsin C (Gly-Arg-AMC substrate); settings: pH 7.2, from IC50
T3 construct: purchased R&D Systems 1071-CY-010
T3 sequence (P53634 25-134 limits assumed): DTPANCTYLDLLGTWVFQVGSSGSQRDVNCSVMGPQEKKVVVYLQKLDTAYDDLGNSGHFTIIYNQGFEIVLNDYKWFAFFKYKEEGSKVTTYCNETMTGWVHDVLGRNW
T3 sequence (P53634 231-394 limits assumed): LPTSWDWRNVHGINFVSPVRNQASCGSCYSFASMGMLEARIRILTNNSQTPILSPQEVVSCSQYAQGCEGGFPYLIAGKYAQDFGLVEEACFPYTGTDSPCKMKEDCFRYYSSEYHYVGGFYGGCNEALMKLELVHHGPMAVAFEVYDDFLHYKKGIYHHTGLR
T3 sequence (P53634 395-463 limits assumed): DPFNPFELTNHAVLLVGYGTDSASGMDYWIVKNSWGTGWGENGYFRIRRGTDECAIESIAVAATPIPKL
Protocol: (§1) Specificity of inhibitors for other cysteine cathepsin proteases. The effects of Z-Arg-Lys-AOMK and Z-Glu-Lys-AOMK on cathepsin V, L, K, S, X, H and C activities were assessed. IC50 values were calculated at pH 4.6 and pH 7.2 conditions, consisting of 40 mM citrate phosphate, 1 mM EDTA, 100 mM NaCl, and 5 mM DTT. The inhibitor concentrations ranged from 16.38 μM to 256 nM with 2-fold serial dilutions. […] Cathepsin V (0.04 ng/μL), cathepsin L (0.03 ng/μL), cathepsin K (0.10 ng/μL), cathepsin S (0.20 ng/uL) were assayed with 40 μM Z-Phe-Arg-AMC. Cathepsin X (0.20 ng/uL), cathepsin C (0.51 ng/uL) and cathepsin H (0.1 ng/μL) were assayed with 40 μM of MCA-Arg-Pro-Pro-Gly-Phe-Ser-Ala-Phe-Lys(Dnp)OH (SEQ ID NO: 2), Gly-Arg-AMC, and Arg-AMC, respectively. Activation of pro-cathepsin H to cathepsin H was conducted by incubation of cathepsin H (4.4 ng/μL) with cathepsin L (1.1 ng/μL) at RT for 2 hrs in activation buffer (20 mM citrate phosphate pH 6.0, 100 mM NaCl, and 5 mM DTT). Cathepsin C (13.78 ng/μL) was activated by incubation with cathepsin L (3.4 ng/μL) at RT for one hr in activation buffer (20 mM citrate phosphate, pH 6.0, 100 mM NaCl, 5 mM DTT). […] For all assays containing peptide-AMC substrates the fluorescent microplate reader settings were the same as outlined above for cathepsin B. For the cathepsin X assay, the plate reader was set to excitation 320 nm, emission 400 nm, gain 105, top optics and read height 1 mm. To convert RFU/s to picomol/min, 10 μM to 0.005 μM (2-fold serial dilution) of MCA-Arg-Pro-Pro-Gly-Phe-Ser-Ala-Phe-Lys(Dnp)OH (SEQ ID NO: 2) was fully hydrolyzed with excess cathepsin X and a standard curve was generated using the total fluorescence values calculated at each concentration.

[4] = biological target: T4, cathepsin K (Homo sapiens, UniProt P43235); assay: Specificity of inhibitors: cathepsin K (Z-Phe-Arg-AMC substrate); settings: cathepsin K
T4 construct: purchased Abcam ab157067
T4 sequence (P43235 115-329): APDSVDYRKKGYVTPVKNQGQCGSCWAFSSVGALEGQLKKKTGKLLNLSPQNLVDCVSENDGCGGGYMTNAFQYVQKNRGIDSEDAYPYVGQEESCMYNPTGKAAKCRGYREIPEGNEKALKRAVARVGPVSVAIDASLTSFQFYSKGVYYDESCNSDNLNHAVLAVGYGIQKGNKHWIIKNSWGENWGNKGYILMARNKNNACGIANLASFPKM
Protocol: as §1

[5] = biological target: T5, cathepsin H (Homo sapiens, UniProt P09668); assay: Specificity of inhibitors: cathepsin H (Arg-AMC substrate); settings: cathepsin H
T5 construct: purchased R&D Systems 75116-CY-010
T5 sequence (P09668 116-335 limits assumed, other chains not shown): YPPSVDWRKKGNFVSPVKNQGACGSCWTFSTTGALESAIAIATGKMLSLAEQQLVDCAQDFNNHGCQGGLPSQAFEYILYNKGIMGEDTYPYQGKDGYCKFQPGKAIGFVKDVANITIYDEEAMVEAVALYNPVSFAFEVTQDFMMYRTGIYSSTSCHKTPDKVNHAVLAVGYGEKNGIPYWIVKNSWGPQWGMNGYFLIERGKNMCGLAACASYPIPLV
Protocol: as §1

[6] = biological target: cathepsin X (Homo sapiens, UniProt Q9UBR2); assay: Specificity of inhibitors: cathepsin X (MCA peptide substrate); settings: cathepsin X, pH 4.6
Chain of cathepsin X (Q9UBR2 62-303): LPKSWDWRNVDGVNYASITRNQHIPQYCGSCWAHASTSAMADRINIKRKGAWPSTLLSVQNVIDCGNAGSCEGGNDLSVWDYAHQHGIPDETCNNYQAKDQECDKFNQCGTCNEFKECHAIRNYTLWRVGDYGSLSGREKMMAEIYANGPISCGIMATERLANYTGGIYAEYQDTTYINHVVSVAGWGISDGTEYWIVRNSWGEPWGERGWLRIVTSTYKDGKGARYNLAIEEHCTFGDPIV
Protocol: as §1

[7] = biological target: T6, cathepsin V (Homo sapiens, UniProt O60911); assay: Specificity of inhibitors: cathepsin V (Z-Phe-Arg-AMC substrate); settings: cathepsin V
T6 construct: purchased R&D Systems 1080-CY-010
T6 sequence (O60911 114-334): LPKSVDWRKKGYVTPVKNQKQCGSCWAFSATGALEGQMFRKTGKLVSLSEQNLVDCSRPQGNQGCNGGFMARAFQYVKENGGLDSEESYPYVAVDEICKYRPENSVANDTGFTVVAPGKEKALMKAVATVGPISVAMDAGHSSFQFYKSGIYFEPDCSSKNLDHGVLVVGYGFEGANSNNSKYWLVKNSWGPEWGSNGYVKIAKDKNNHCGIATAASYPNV
Protocol: as §1

[8] = biological target: T2, cathepsin B; assay: Cathepsin B inhibitor kinetic characterization, fluorogenic assay with Z-Phe-Arg-AMC; settings: cathepsin B
Protocol: Inhibitor kinetic characterization using fluorogenic assays for cathepsin B activity. Kinetic analyses of IC50, K1, kobs, and kinact/K1 values for Z-Arg-Lys-AOMK and Z-Glu-Lys-AOMK inhibition of cathepsin B were conducted by fluorogenic proteolytic assays consisting of 40 μM Z-Phe-Arg-AMC, 40 mM citrate phosphate at pH 7.2 or pH 4.6, 1 mM EDTA, 100 mM NaCl, 5 mM DTT, and 0.01% Tween 20; assays were performed at room temperature (22-27° C.) in quadruplicate. Inhibitor and substrate were combined in the reaction well, and the assay was started upon addition of cathepsin B (0.04 ng/μL). The inhibitor concentration ranged from 5.5 μM to 1.1 nM (1.5-fold serial dilution). A vehicle control assay contained 2% DMSO instead of inhibitor. Enzyme velocity (RFU/sec) was measured during a […] incubation period as relative fluorescent units per sec (RFU/s), calculated using the highest slope recorded for 10 consecutive readings taken at 46 sec intervals (thus, activity is calculated over a total of 460 sec). Prism software was used to analyze enzyme activity data in kinetic studies. IC50 values were calculated (without preincubation of inhibitor and enzyme) as the concentration of inhibitor that reduced cathepsin B activity by 50%.
For determination of K1 and kinact/K1 kinetic inhibition constants, kobs constants were determined by plots of cathepsin B activity in time courses with different inhibitor concentrations by curve fitting slope data of RFU versus time into Y=Y0*e^(−kobs*^X), where Y0 is the activity for the control with no inhibitor condition, Y is the activity in the presence of inhibitor, X is time. K1 and kinact values were calculated from curve fitting the kobs values into the equation kobs=kinact*[I]/(K1+[I]), where [I] is inhibitor concentration, and K1 is the x-axis inhibitor concentration where y=kinact/2 and kinact is the maximum rate of inactivation at saturating inhibitor concentrations (93, 94). These kinetic analyses are for irreversible inhibitors, Z-Arg-Lys-AOMK and Z-Glu-Lys-AOMK of this study, that utilize Ki values, rather than Ki values used for reversible inhibitors (93).

[9] = biological target: T7, cathepsin S (Homo sapiens, UniProt P25774); assay: Specificity of inhibitors: cathepsin S (Z-Phe-Arg-AMC substrate); settings: cathepsin S
T7 construct: purchased R&D Systems 1183-CY-010
T7 sequence (P25774 115-331): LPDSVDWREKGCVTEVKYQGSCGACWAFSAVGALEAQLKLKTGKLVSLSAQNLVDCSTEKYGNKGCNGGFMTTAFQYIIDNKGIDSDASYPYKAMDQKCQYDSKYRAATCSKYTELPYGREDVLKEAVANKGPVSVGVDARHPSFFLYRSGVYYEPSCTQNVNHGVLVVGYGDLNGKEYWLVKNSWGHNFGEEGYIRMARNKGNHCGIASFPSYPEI
Protocol: as §1

[10] = biological target: T8, cathepsin L (Homo sapiens, UniProt P07711); assay: Specificity of inhibitors: cathepsin L (Z-Phe-Arg-AMC substrate); settings: cathepsin L
T8 construct: purchased R&D Systems 952-CY-010
T8 sequence (P07711 114-333): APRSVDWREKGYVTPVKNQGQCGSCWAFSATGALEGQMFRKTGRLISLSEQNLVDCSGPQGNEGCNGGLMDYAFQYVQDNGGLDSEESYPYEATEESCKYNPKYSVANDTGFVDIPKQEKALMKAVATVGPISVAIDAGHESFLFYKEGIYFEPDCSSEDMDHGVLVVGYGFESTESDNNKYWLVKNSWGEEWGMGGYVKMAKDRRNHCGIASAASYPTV
Protocol: as §1

## CCCNC(=O)[C@H]1O[C@@H]1C(=O)N[C@H](C(=O)N1CCC[C@H]1C(=O)O)[C@@H](C)CC [CA-074, reference compound]
[1]
  inhibition of proteolytic (cathepsin B) activity in cell lysate: completely inhibited

## Cc1cccc(C)c1C(=O)OCC(=O)C(CCCCN)NC(=O)C(CCC(=O)O)NC(=O)OCc1ccccc1 (stereo not drawn) [Z-Glu-Lys-AOMK]
[2]
  cathepsin B activity after pre-incubation and dilution of inhibitor: no cathepsin B activity
[3]
  fold more potent for cathepsin B than cathepsin C: 38 fold
[4]; pH 4.6
  IC50: > 16 µM
[4]; pH 4.6, 16,000 nM inhibitor
  inhibition at 16 µM: 10%
[4]; pH 7.2
  IC50: > 16 µM
[5]; pH 4.6
  IC50: > 16 µM
[5]; pH 7.2
  IC50: > 16 µM
[6]
  IC50: > 16 µM
[7]; pH 7.2
  IC50: > 16 µM
[7]; pH 7.2, 16,000 nM inhibitor
  inhibition at 16 µM: 10%
[8]; pH 4.6
  kinact/KI: 2000 M⁻¹ s⁻¹
[8]; pH 4.6, irreversible inhibitor
  Ki: 7.9 µM
[8]; pH 4.6, without preincubation
  IC50: 1.1 µM
[8]; pH 7.2
  kinact/KI: 8200 M⁻¹ s⁻¹
[8]; pH 7.2, irreversible inhibitor
  Ki: 2.3 µM
[8]; pH 7.2, without preincubation
  IC50: 0.32 µM
[9]; pH 4.6
  IC50: > 16 µM
[9]; pH 4.6, 16,000 nM inhibitor
  inhibition at 16 µM: 26%
[9]; pH 7.2
  IC50: > 16 µM
[9]; pH 7.2, 16,000 nM inhibitor
  inhibition at 16 µM: 30%
[10]; pH 4.6
  IC50: > 16 µM
[10]; pH 4.6, 16,000 nM inhibitor
  inhibition at 16 µM: 23%
